Cn1cc[n+](CCC[n+]2ccn(C)c2)c1.F[P-](F)(F)(F)(F)F.F[P-](F)(F)(F)(F)F
Conditions | solubility (mole fraction)
in 2-butanone, 290.15 K | 0.00292
in 2-butanone, 294.15 K | 0.00339
in 2-butanone, 299.35 K | 0.00404
in 2-butanone, 303.15 K | 0.00458
in 2-butanone, 308.15 K | 0.00524
in 2-butanone, 313.25 K | 0.00598
in 2-butanone, 318.15 K | 0.00671
in 2-butanone, 323.15 K | 0.00738
in 2-butanone, 328.15 K | 0.00811
in 2-butanone, 335.25 K | 0.00913
in acetone, 289.15 K | 0.0365
in acetone, 293.15 K | 0.0401
in acetone, 296.65 K | 0.0433
in acetone, 301.15 K | 0.0485
in acetone, 306.15 K | 0.0551
in acetone, 310.15 K | 0.0605
in acetone, 315.15 K | 0.0681
in acetone, 321.15 K | 0.0772
in acetophenone, 289.15 K | 0.000417
in acetophenone, 293.15 K | 0.000461
in acetophenone, 296.65 K | 0.0005
in acetophenone, 302.15 K | 0.00056
in acetophenone, 307.15 K | 0.000619
in acetophenone, 312.15 K | 0.000683
in acetophenone, 317.35 K | 0.000743
in acetophenone, 321.65 K | 0.000807
in acetophenone, 328.15 K | 0.000899
in acetophenone, 333.15 K | 0.000996
in acetylacetone, 288.55 K | 0.000598
in acetylacetone, 293.15 K | 0.000876
in acetylacetone, 297.45 K | 0.0012
in acetylacetone, 302.65 K | 0.00172
in acetylacetone, 307.85 K | 0.00241
in acetylacetone, 313.15 K | 0.00325
in acetylacetone, 317.65 K | 0.00411
in acetylacetone, 323.15 K | 0.00532
in acetylacetone, 327.35 K | 0.00639
in acetylacetone, 334.65 K | 0.0084
in cyclohexanone, 289.65 K | 0.000151
in cyclohexanone, 294.15 K | 0.000222
in cyclohexanone, 299.15 K | 0.000331
in cyclohexanone, 303.15 K | 0.000443
in cyclohexanone, 308.15 K | 0.000622
in cyclohexanone, 313.25 K | 0.000852
in cyclohexanone, 318.15 K | 0.00112
in cyclohexanone, 323.15 K | 0.00143
in cyclohexanone, 328.15 K | 0.00181
in cyclohexanone, 333.15 K | 0.00224
in water, 289.15 K | 7.7e-05
in water, 293.15 K | 0.000102
in water, 297.65 K | 0.000137
in water, 304.75 K | 0.000216
in water, 309.35 K | 0.000289
in water, 313.25 K | 0.000366
in water, 317.15 K | 0.000454
in water, 322.65 K | 0.000611
in water, 327.15 K | 0.00078
in water, 332.65 K | 0.00104
